{
  "source": "patent US20110306641A1",
  "about": "“NOVEL 2,6-SUBSTITUTED-3-NITROPYRIDINE DERIVATIVE, METHOD FOR PREPARING SAME, AND PHARMACEUTICAL PREPARATION INCLUDING SAME” (priority 2008, published 2011)",
  "key": {"Calvarial cell [1]": {"test_system": "Calvarial cell", "test": "Alkaline phosphatase (ALP) activity in osteoblasts (Calvarial cells)", "assay_type": "cell-based, mouse", "conditions": "3 days; for activity at 1 µM: Mus musculus, 72 h, read-out: ALP activity (1 μM, % of Control) Calvarial cell", "experimental": "(§1) Differentiation and activity of osteoblasts were indirectly evaluated by measuring an ALP activity having a close relationship with osteogenesis.\n(§2) Osteoblasts (Calvarial cells) prepared in Experimental Example 1 and MC3T3-E1 cells (available from RIKEN Cell Bank, Japan) were collected in α-MEM supplemented with 10% FBS, followed by cell counting. The cells were dispensed into 24-well cultureware at a density of 2×10^4 cells/well. After culturing of the cells for 24 hours, the culture media were discarded and replaced with fresh media in which test compounds were diluted to a concentration of 1 μM (1 mL/well). In addition, the vehicle control group containing 0.1% DMSO was also treated. Under the conditions where the compounds were treated, the cells were cultured in a 5% CO2 […] at 37° for 3 days. When the experiment was terminated, the supernatant was removed and the cells were washed three times with cold phosphate buffer at 4°. 0.2% Triton X-100 was added to the washed cells which were then subjected to three cycles of freezing at −70° and thawing at room temperature for the complete lysis of cells. The cell extracts were pooled and centrifuged to collect the cell supernatant which was used for the measurement of ALP activity and proteins. The protein concentration was measured using a BCA assay kit (manufactured by Sigma-Aldrich). For the measurement of ALP activity, p-nitrophenylphosphate was added to the cell supernatant which was then incubated at 37° for 30 minutes, and the reaction was terminated with the addition of 50 μL of 0.2N sodium hydroxide. The standard curve was plotted at the absorbance of 405 nm using p-nitrophenol as a standard material and then the absorbance of test materials thus reacted was measured to determine the production amount of p-nitrophenol.\n(§3) The ALP activity was calculated by dividing the amount of p-nitrophenol produced from each test material by the protein amount and the reaction time. Therefore, the unit of ALP activity was given in terms of p-nitrophenol/μg protein/min. The results are given in Table 3 where the ALP activity unit of each test material was given in terms of % change through the comparison between the individual test materials and the vehicle control group."}, "Calvarial cell [2]": {"test_system": "Calvarial cell", "test": "Cytotoxicity test (MTT) in osteoblasts (calvarial cells)", "conditions": "1 μM, 72 hours, vs vehicle control", "procedure": "Drugs were diluted to a concentration of 2 μM in α-MEM culture media supplemented with 10% FBS. The vehicle control group was established to contain 0.2% DMSO. 100 μL/well of the diluted drugs were dispensed into 96-well plates to which osteoblasts (calvarial cells) prepared in Experimental Example 1 were then added at a density of 1.0×10^4 cells/100 μL/well. Here, the final compound concentration in the cell culture was 1 μM, and the vehicle control group contained 0.1% DMSO. The cells were cultured in a 5% CO2 inhibitorr at 37° for 72 hours. 25 μL of 3-(4,5-dimethyl-2-thiazolyl)-2,5-diphenyl-2H-tetrazolium bromide (MTT) dissolved in PBS (2 mg/mL) was added to each cell culture 4 hours before the end of culture. After completion of the reaction, the plates were centrifuged, the media were discarded, and 100 μL of formazan was added and dissolved in dimethyl sulfoxide (DMSO). Finally, the absorbance of the developed plates was measured at 540 nm. The cell viability was expressed as % concentration in comparison with the vehicle control group."}, "MC3T3-E1 cell": {"test_system": "MC3T3-E1 cell", "test": "Alkaline phosphatase (ALP) activity in MC3T3-E1 cells", "assay_type": "cell-based", "conditions": "3 days; for activity at 1 µM: Mus musculus, 72 h, read-out: ALP activity (1 μM, % of Control) MC3T3-E1 cell", "experimental": "as §1, §2, §3"}, "[3]": {"test_system": "osteoclastogenesis (formation of multinucleated osteoclasts)", "test": "Osteoclastogenesis inhibition via co-culture system (bone marrow cells + osteoblasts, TRAP staining)", "assay_type": "cell-based, mouse", "conditions": "7 days co-culture, vs vehicle control; for Osteoclastogenesis inhibition (%): 1 μM; for inhibition at 1 µM: Mus musculus, Osteoclast, 168 h", "experimental": "Osteoclastogenesis inhibitory effects of the compounds of the present invention were evaluated via a co-culture system (Reference: Endocrinology 137(1996), 2187 to 2190, E. Jimi et al.). A specific experimental method is as follows.\n1) Preparation of Bone Marrow Cells and Osteoblasts\nFemur and tibia were aseptically dissected from 6 to 8-week-old male ddY mice to harvest bone marrow cells by a conventional method using a syringe. In brief, tissues were removed from the dissected bone, the bone ends were cut off with scissors, and the bone marrow was isolated by pushing a medium-containing syringe (23G) against the one end of the cut bone. The isolated bone marrow was subjected to repeated piston movement of a syringe such that single cells were obtained (Reference: Endocrinology 123(1988), 2600 to 2602, Takahashi et al.). After removal of red blood cells within the bone marrow, the bone marrow cells recovered by centrifugation were placed in an α-MEM supplemented with 10% fetal bovine serum (FBS), followed by counting of nucleated cells and then were immediately used for a co-culture system.\nFor the preparation of osteoblasts (Calvarial cells), the cranial bone were aseptically dissected from 1 to 2-day-old neonatal ICR mice and subjected to continuous reaction with a 0.2% collagenase solution to separate osteoblasts. The cell-suspended supernatant was centrifuged to recover osteoblasts which were grown to full confluence in an α-MEM supplemented with 10% FBS and then diluted to a desired cell density for use in the experiment.\n2) Osteoclastogenesis Inhibition Experiment Via Co-Culture System\nAs the medium used for a co-culture system, a differentiation medium with the addition of differentiation factors 1α,25-dihydroxyvitamin D3 (10^−8M) and dexamethasone (10^−8M) to α-MEM supplemented with 10% FBS was used for the induction of osteoclastogenesis. First, the compounds of the present invention dissolved in dimethyl sulfoxide (DMSO) at a concentration of 1 mM were diluted to 2 μM using the above-mentioned differentiation medium. As a vehicle control group, 0.2% (v/v) DMSO was added to the medium. 100 μL/well of each medium was added to 96-well plates. In addition, the above prepared bone marrow cells and osteoblasts were plated onto 96-well plates at a density of 1×10^5 cells/50 μL/well and 3×10^3 cells/50 μL/well, respectively. The total volume/well was 200 μL and the final compound concentration was 1 μM. The control group was 0.1% (v/v) DMSO. The cells were cultured with exchange of the culture media with fresh media containing differentiation factors and test materials (materials containing the compounds of the present invention) at an interval of 2 to 3 days.\n7 days after culturing of cells, the formation of multinucleated osteoclasts was confirmed by microscopic examination, the medium was removed from the wells and then the cells were fixed in a 10% phosphate-buffered formalin solution. The degree of formation of mature osteoclasts was measured taking advantage of the characteristics of osteoclasts showing a positive reaction to a tartrate-resistant acid phosphatase (TRAP) staining solution. The TRAP staining solution was prepared in a manner such that naphthol AS-MS phosphate as a substrate and a coloring agent (Fast Red Violet LB salt) were dissolved in N,N-dimethylformamide, and a 0.1N NaHCO3 buffer solution containing 50 mM of tartaric acid was added thereto. Among the TRAP-positive cells under a light microscope, multinucleated osteoclasts having 6 to 7 nuclei were regarded as mature osteoclasts.\nThe degree of inhibition of osteoclastogenesis was calculated according to the following equation 1. The results are summarized in Table 2 below (Experiments were carried out for 4 wells/experimental group (n=4), and the results are given in terms of mean±standard deviation) […]"}},
  "data": [
    {"smiles": "CCN(CCO)c1ccc([N+](=O)[O-])c(Nc2ccc3[nH]ncc3c2)n1", "note": "[Compound 11, 2-(1H-indazol-5-yl)amino-6-[(N-ethyl-2-hydroxyethyl)amino]-3-nitropyridine]", "values": [
      {"measurement": "ALP activity (1 μM, % of Control) Calvarial cell", "setting": "Calvarial cell [1]", "result": "143 % of Control"},
      {"measurement": "Cell viability (%) Calvarial cell", "setting": "Calvarial cell [2]", "result": 105, "unit": "%"},
      {"measurement": "ALP activity (1 μM, % of Control) MC3T3-E1 cell", "setting": "MC3T3-E1 cell", "result": "140 % of Control"},
      {"measurement": "Osteoclastogenesis inhibition (%)", "setting": "[3]", "result": 98, "unit": "%"}
    ]},
    {"smiles": "CC(C)Nc1ccc([N+](=O)[O-])c(Nc2ccc3[nH]ncc3c2)n1", "note": "[Compound 6, 2-(1H-indazol-5-yl)amino-6-(isopropylamino)-3-nitropyridine]", "values": [
      {"measurement": "activity at 1 µM", "setting": "Calvarial cell [1]", "result": 188, "unit": "%"},
      {"measurement": "Cell viability (%) Calvarial cell", "setting": "Calvarial cell [2]", "result": 97, "unit": "%"},
      {"measurement": "activity at 1 µM", "setting": "MC3T3-E1 cell", "result": 207, "unit": "%"},
      {"measurement": "inhibition at 1 µM", "setting": "[3]", "result": 100, "unit": "%"}
    ]},
    {"smiles": "O=[N+]([O-])c1ccc(N2CCNCC2)nc1Nc1ccc2[nH]ncc2c1", "note": "[Compound 10, 2-(1H-indazol-5-yl)amino-6-(piperazin-1-yl)-3-nitropyridine]", "values": [
      {"measurement": "activity at 1 µM", "setting": "Calvarial cell [1]", "result": 189, "unit": "%"},
      {"measurement": "Cell viability (%) Calvarial cell", "setting": "Calvarial cell [2]", "result": 95, "unit": "%"},
      {"measurement": "activity at 1 µM", "setting": "MC3T3-E1 cell", "result": 124, "unit": "%"},
      {"measurement": "inhibition at 1 µM", "setting": "[3]", "result": 99, "unit": "%"}
    ]},
    {"smiles": "CC(C)CNc1ccc([N+](=O)[O-])c(Nc2ccc3[nH]ncc3c2)n1", "note": "[Compound 8, 2-(1H-indazol-5-yl)amino-6-(isobutylamino)-3-nitropyridine]", "values": [
      {"measurement": "activity at 1 µM", "setting": "Calvarial cell [1]", "result": 157, "unit": "%"},
      {"measurement": "Cell viability (%) Calvarial cell", "setting": "Calvarial cell [2]", "result": 96, "unit": "%"},
      {"measurement": "activity at 1 µM", "setting": "MC3T3-E1 cell", "result": 240, "unit": "%"},
      {"measurement": "inhibition at 1 µM", "setting": "[3]", "result": 100, "unit": "%"}
    ]},
    {"smiles": "CN(CC1OCCO1)c1ccc([N+](=O)[O-])c(Nc2ccc3[nH]ncc3c2)n1", "note": "[Compound 17, 2-(1H-indazol-5-yl)amino-6-[(N-[1,3]-dioxolan-2-ylmethyl)-methylamino]-3-nitropyridine]", "values": [
      {"measurement": "ALP activity (1 μM, % of Control) Calvarial cell", "setting": "Calvarial cell [1]", "result": "139 % of Control"},
      {"measurement": "Cell viability (%) Calvarial cell", "setting": "Calvarial cell [2]", "result": 89, "unit": "%"},
      {"measurement": "ALP activity (1 μM, % of Control) MC3T3-E1 cell", "setting": "MC3T3-E1 cell", "result": "188 % of Control"},
      {"measurement": "Osteoclastogenesis inhibition (%)", "setting": "[3]", "result": 92, "unit": "%"}
    ]},
    {"smiles": "O=[N+]([O-])c1ccc(N2CCC(O)CC2)nc1Nc1ccc2[nH]ncc2c1", "note": "[Compound 9, 2-(1H-indazol-5-yl)amino-6-(4-hydroxypiperidino)-3-nitropyridine]", "values": [
      {"measurement": "activity at 1 µM", "setting": "Calvarial cell [1]", "result": 166, "unit": "%"},
      {"measurement": "Cell viability (%) Calvarial cell", "setting": "Calvarial cell [2]", "result": 105, "unit": "%"},
      {"measurement": "activity at 1 µM", "setting": "MC3T3-E1 cell", "result": 112, "unit": "%"},
      {"measurement": "inhibition at 1 µM", "setting": "[3]", "result": 100, "unit": "%"}
    ]},
    {"smiles": "CNc1ccc([N+](=O)[O-])c(Nc2ccc3[nH]ncc3c2)n1", "note": "[Compound 5, 2-(1H-indazol-5-yl)amino-6-(methylamino)-3-nitropyridine]", "values": [
      {"measurement": "activity at 1 µM", "setting": "Calvarial cell [1]", "result": 193, "unit": "%"},
      {"measurement": "Cell viability (%) Calvarial cell", "setting": "Calvarial cell [2]", "result": 112, "unit": "%"},
      {"measurement": "activity at 1 µM", "setting": "MC3T3-E1 cell", "result": 206, "unit": "%"},
      {"measurement": "inhibition at 1 µM", "setting": "[3]", "result": 89, "unit": "%"}
    ]},
    {"smiles": "O=[N+]([O-])c1ccc(NCCc2ccccn2)nc1Nc1ccc2cn[nH]c2c1", "note": "[Compound 14, 2-(1H-indazol-6-yl)amino-6-[(2-pyridyl)ethylamino]-3-nitropyridine]", "values": [
      {"measurement": "activity at 1 µM", "setting": "Calvarial cell [1]", "result": 111, "unit": "%"},
      {"measurement": "Cell viability (%) Calvarial cell", "setting": "Calvarial cell [2]", "result": 91, "unit": "%"},
      {"measurement": "activity at 1 µM", "setting": "MC3T3-E1 cell", "result": 121, "unit": "%"},
      {"measurement": "inhibition at 1 µM", "setting": "[3]", "result": 98, "unit": "%"}
    ]}
  ]
}
